According to the NIST ThermoML archive (doi:10.1021/acs.jced.9b00001):
Where “and” joins values, the source holds several entries; their conditions need not be identical. Equal entries are not always repeated. ± gives the expanded uncertainty stated by the source.

Conditions: Liquid, Closed cell (Static) method

FC(F)(F)/C=C/Cl [(E)-1-chloro-3,3,3-trifluoroprop-1-ene]
vapor or sublimation pressure (253.17 K): 17.85 ± 0.33 kPa | vapor or sublimation pressure (257.16 K): 22.05 ± 0.34 kPa | vapor or sublimation pressure (260.17 K): 25.84 ± 0.34 kPa | vapor or sublimation pressure (263.21 K): 30.13 ± 0.34 kPa | vapor or sublimation pressure (267.04 K): 36.26 ± 0.35 kPa and 36.26 ± 0.36 kPa | vapor or sublimation pressure (270.14 K): 41.85 ± 0.37 kPa | vapor or sublimation pressure (273.14 K): 47.91 ± 0.37 kPa | vapor or sublimation pressure (277.11 K): 57.02 ± 0.38 kPa | vapor or sublimation pressure (280.14 K): 64.83 ± 0.39 kPa | vapor or sublimation pressure (283.09 K): 73.21 ± 0.41 kPa | vapor or sublimation pressure (287.12 K): 86.04 ± 0.42 kPa | vapor or sublimation pressure (290.14 K): 96.6 ± 0.44 kPa | vapor or sublimation pressure (290.16 K): 96.73 ± 0.44 kPa | vapor or sublimation pressure (293.09 K): 108.04 ± 0.44 kPa | vapor or sublimation pressure (293.17 K): 108.4 ± 0.45 kPa | vapor or sublimation pressure (297.15 K): 125.37 ± 0.48 kPa | vapor or sublimation pressure (297.16 K): 125.42 ± 0.49 kPa | vapor or sublimation pressure (300.15 K): 139.48 ± 0.5 kPa | vapor or sublimation pressure (303.16 K): 154.83 ± 0.51 kPa | vapor or sublimation pressure (307.16 K): 177.3 ± 0.54 kPa | vapor or sublimation pressure (310.15 K): 195.73 ± 0.57 kPa | vapor or sublimation pressure (313.15 K): 215.48 ± 0.59 kPa | vapor or sublimation pressure (317.16 K): 244.36 ± 0.62 kPa | vapor or sublimation pressure (320.16 K): 267.95 ± 0.65 kPa | vapor or sublimation pressure (323.15 K): 293.08 ± 0.67 kPa | vapor or sublimation pressure (323.25 K): 293.99 ± 0.68 kPa | vapor or sublimation pressure (323.36 K): 295.01 ± 0.69 kPa | vapor or sublimation pressure (327.16 K): 329.62 ± 0.73 kPa | vapor or sublimation pressure (330.15 K): 359.02 ± 0.77 kPa | vapor or sublimation pressure (333.14 K): 390.34 ± 0.8 kPa and 390.35 ± 0.8 kPa | vapor or sublimation pressure (333.15 K): 390.53 ± 0.81 kPa | vapor or sublimation pressure (337.15 K): 435.75 ± 0.87 kPa | vapor or sublimation pressure (340.15 K): 472.19 ± 0.92 kPa | vapor or sublimation pressure (343.13 K): 510.48 ± 0.96 kPa | vapor or sublimation pressure (343.15 K): 510.8 ± 0.96 kPa and 510.94 ± 0.87 kPa | vapor or sublimation pressure (343.19 K): 511.2 ± 0.96 kPa | vapor or sublimation pressure (347.15 K): 566.08 ± 1 kPa | vapor or sublimation pressure (350.16 K): 610.55 ± 1.1 kPa | vapor or sublimation pressure (353.18 K): 657.68 ± 1.2 kPa and 657.72 ± 1.2 kPa | vapor or sublimation pressure (353.19 K): 657.8 ± 1.2 kPa and 657.95 ± 1.1 kPa | vapor or sublimation pressure (357.16 K): 724.03 ± 1.2 kPa | vapor or sublimation pressure (360.16 K): 777.18 ± 1.3 kPa | vapor or sublimation pressure (363.17 K): 833.48 ± 1.4 kPa | vapor or sublimation pressure (363.2 K): 834.12 ± 1.4 kPa | vapor or sublimation pressure (363.23 K): 834.57 ± 1.4 kPa and 835.18 ± 1.4 kPa | vapor or sublimation pressure (367.17 K): 913.02 ± 1.5 kPa | vapor or sublimation pressure (370.17 K): 976.1 ± 1.6 kPa | vapor or sublimation pressure (373.17 K): 1042.6 ± 1.7 kPa and 1043.1 ± 1.7 kPa | vapor or sublimation pressure (373.19 K): 1043.2 ± 1.7 kPa and 1043.3 ± 1.7 kPa | vapor or sublimation pressure (377.15 K): 1136.1 ± 1.9 kPa | vapor or sublimation pressure (380.15 K): 1210.4 ± 2 kPa | vapor or sublimation pressure (383.2 K): 1289.7 ± 2.1 kPa | vapor or sublimation pressure (383.21 K): 1289.9 ± 2.1 kPa | vapor or sublimation pressure (383.22 K): 1290.5 ± 2.1 kPa and 1290.6 ± 2.1 kPa | vapor or sublimation pressure (387.16 K): 1398.3 ± 2.3 kPa | vapor or sublimation pressure (390.15 K): 1484.8 ± 2.4 kPa | vapor or sublimation pressure (393.17 K): 1576.2 ± 2.6 kPa | vapor or sublimation pressure (393.2 K): 1577.7 ± 2.6 kPa | vapor or sublimation pressure (393.21 K): 1577.4 ± 2.6 kPa and 1578 ± 2.6 kPa | vapor or sublimation pressure (397.18 K): 1704 ± 2.8 kPa | vapor or sublimation pressure (397.22 K): 1705.7 ± 2.8 kPa | vapor or sublimation pressure (400.23 K): 1806.9 ± 2.9 kPa | vapor or sublimation pressure (400.24 K): 1806.7 ± 2.9 kPa | vapor or sublimation pressure (403.14 K): 1908.4 ± 3.1 kPa | vapor or sublimation pressure (403.15 K): 1909 ± 3.1 kPa | vapor or sublimation pressure (403.22 K): 1911.4 ± 3.1 kPa and 1911.9 ± 3.1 kPa | vapor or sublimation pressure (403.26 K): 1912.9 ± 3.1 kPa | vapor or sublimation pressure (407.13 K): 2055.5 ± 3.4 kPa | vapor or sublimation pressure (408.25 K): 2098.3 ± 3.4 kPa | vapor or sublimation pressure (410.17 K): 2173.3 ± 3.5 kPa | vapor or sublimation pressure (413.1 K): 2291.7 ± 3.7 kPa | vapor or sublimation pressure (413.18 K): 2294.5 ± 3.7 kPa | vapor or sublimation pressure (413.19 K): 2294.6 ± 3.7 kPa and 2295.1 ± 3.7 kPa and 2294.9 ± 3.7 kPa | vapor or sublimation pressure (417.18 K): 2463.9 ± 4 kPa | vapor or sublimation pressure (418.23 K): 2510.4 ± 4.1 kPa | vapor or sublimation pressure (420.13 K): 2595.8 ± 4.2 kPa | vapor or sublimation pressure (423.15 K): 2735.4 ± 4.5 kPa and 2736 ± 4.5 kPa | vapor or sublimation pressure (423.18 K): 2737.1 ± 4.5 kPa | vapor or sublimation pressure (423.19 K): 2737.5 ± 4.5 kPa | vapor or sublimation pressure (427.19 K): 2932.7 ± 4.8 kPa | vapor or sublimation pressure (430.25 K): 3090.6 ± 5 kPa
